According to EP2441755A1 (Almirall, S.A., priority 2010, dated 2012):
pIC50: −log10 of the molar value. Like-named read-outs stand apart in the source and are kept apart here.

What was measured:
JAK3 (aa 795-1124) = molecular target: T1, JAK3 (aa 795-1124) (Homo sapiens, UniProt P52333); assay: In vitro JAK kinase assay (TR-FRET), JAK3; type: biochemical; details: ATP 0.6 µM, poly (GT)-Biotin 140 nM, 30 minutes at room temperature
T1 construct: JAK3 (aa 795-1124); GST (N); purchased Carna Bioscences; host or cells: baculovirus expression system
T1 sequence (P52333 795-1124): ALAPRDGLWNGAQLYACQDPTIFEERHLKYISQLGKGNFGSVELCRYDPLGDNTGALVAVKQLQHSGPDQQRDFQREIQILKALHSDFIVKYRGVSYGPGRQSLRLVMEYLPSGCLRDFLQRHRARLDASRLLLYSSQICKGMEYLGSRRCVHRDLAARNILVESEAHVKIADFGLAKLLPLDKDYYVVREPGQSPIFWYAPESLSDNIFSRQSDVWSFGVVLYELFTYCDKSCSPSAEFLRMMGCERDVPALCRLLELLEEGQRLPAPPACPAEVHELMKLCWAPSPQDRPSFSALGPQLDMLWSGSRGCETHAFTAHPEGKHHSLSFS
Experimental: (§1) In vitro JAK kinase Assays
(§2) Compounds were screened for their ability to inhibit JAK1, JAK2 and JAK3 using the assays as indicated below.
(§3) The catalytic domains of human JAK1 (aa 850-1154), JAK2 (aa 826-1132), JAK3 (aa 795-1124) and Tyk2 (aa 871-1187) were expressed as N-terminal GST-fusion proteins using a baculovirus expression system and were purchased from Carna Bioscences. The enzymatic activity was assayed using as substrate a biotinylated peptide, poly (GT)-Biotin (CisBio). The peptide concentration in the reactions was 60 nM for JAK1, 20 nM for JAK2, 140 nM for JAK3 and 50 nM for Tyk2. The degree of phosphorylation was detected by TR-FRET (time-resolved fluorescence energy transfer).
(§4) IC50s of compounds were measured for each kinase in a reaction mixture containing the enzyme, ATP and the peptide in 8 mM MOPS (pH 7.0), 10 mM MgCl2, 0.05% β-mercaptoethanol, 0.45 mg/mL BSA. The ATP concentration in the reactions was 3 µM for JAK1, 0.2 µM for JAK2, 0.6 µM for JAK3 and 1.8 µM for Tyk2. The enzymatic reactions took place for 30 minutes at room temperature. Then, the reactions were stopped with 20 µL of quench detection buffer (50 mM HEPES, 0.5 M KF, EDTA 0.25 M, 0.1% (w/v) BSA, pH 7.5) containing 0.115 µg/mL of anti-phosphoTyr (PT66)-Cryptate (CisBio) and a variable concentration of SA-XL665 (CisBio) to keep the SA-B ratio constant. Incubate for 3 h and read on Victor 2V spectrofluorometer (PerkinElmer) set to read fluorescence resonance energy transfer.

human JAK1 (aa 850-1154) = molecular target: T2, human JAK1 (aa 850-1154) (Homo sapiens, UniProt P23458); assay: In vitro JAK kinase assay (TR-FRET), JAK1; type: biochemical; details: ATP 3 µM, poly (GT)-Biotin 60 nM, 30 minutes at room temperature
T2 construct: human JAK1 (aa 850-1154); GST (N); purchased Carna Bioscences; host or cells: baculovirus expression system
T2 sequence (P23458 850-1154): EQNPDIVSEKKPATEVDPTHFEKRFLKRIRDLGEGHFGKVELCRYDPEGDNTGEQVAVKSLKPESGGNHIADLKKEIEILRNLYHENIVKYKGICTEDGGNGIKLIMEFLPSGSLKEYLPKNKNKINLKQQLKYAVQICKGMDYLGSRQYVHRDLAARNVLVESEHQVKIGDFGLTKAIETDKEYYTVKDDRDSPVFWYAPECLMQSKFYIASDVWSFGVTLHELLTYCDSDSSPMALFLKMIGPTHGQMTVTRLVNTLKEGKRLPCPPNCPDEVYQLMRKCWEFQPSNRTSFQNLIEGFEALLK
Experimental: as §1, §2, §3, §4

JAK2 (aa 826-1132) = molecular target: T3, JAK2 (aa 826-1132) (Homo sapiens, UniProt O60674); assay: In vitro JAK kinase assay (TR-FRET), JAK2; type: biochemical; details: ATP 0.2 µM, poly (GT)-Biotin 20 nM, 30 minutes at room temperature
T3 construct: JAK2 (aa 826-1132); GST (N); purchased Carna Bioscences; host or cells: baculovirus expression system
T3 sequence (O60674 826-1132): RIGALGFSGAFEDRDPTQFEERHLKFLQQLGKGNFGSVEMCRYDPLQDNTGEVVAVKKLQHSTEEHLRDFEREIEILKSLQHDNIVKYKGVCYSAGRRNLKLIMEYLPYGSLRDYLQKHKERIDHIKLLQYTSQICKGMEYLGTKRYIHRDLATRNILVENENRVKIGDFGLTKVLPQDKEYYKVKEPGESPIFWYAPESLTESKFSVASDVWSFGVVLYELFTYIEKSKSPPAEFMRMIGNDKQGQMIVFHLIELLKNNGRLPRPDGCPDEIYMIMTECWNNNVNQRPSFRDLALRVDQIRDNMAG
Experimental: as §1, §2, §3, §4

LAD2 cells = LAD2 cells assay (degranulation, β-hexosaminidase release); type: cell-based; details: Homo sapiens, 0.5 h; IgE-sensitized LAD2 cells, 30 min with compound, activated with 125 ng/ml streptavidin; released β-hexosaminidase; read-out: LAD2IC50
From the text: LAD2 is a human mast cell line depending on stem cell factor for its survival, maturation and differentiation. This mast cell line was established by the NIH from bone marrow aspirates from a patient with mast cell sarcoma. LAD2 cells resemble CD34+ - derived human mast cells as they have granules containing tryptase, histamine and β-hexosaminidase. They also express c-kit and FcεRI (Kirshenbaum, et al., Leukemia Research 27: 677-682, 2003).
Sensitization of LAD2 cells
Cells were sensitized (0.2x10^6 cells/ml) in its normal growth factor (Complete StemPro-34 SFM, Gibco 10639-011 containing StemPro-34 nutrient supplement (1/40); glutamine (2 mM) and supplemented with 100 ng/ml SCF) by adding 100 ng/ml of biotin-labeled IgE (USBiological) overnight (16-18 h, 37º, 5% CO2) in a humidified atmosphere (90%).
Compounds were prepared from a 10^-2M stock in 100% DMSO to give seven successive 1/3 dilutions in DMSO. From each concentration, 2 further 1/10 dilutions were prepared in release buffer (137 mM NaCl, 2.70 mM KCI, 0.4 mM NaH2PO4, 5.6 mM (D)-glucose, 1.8 mM CaCl2, 1.3 mM MgSO4, 0.025% BSA). Finally, 5 µl from each diluted concentration were transferred into the assay plate (flat 96-well Nunc). The final compound concentrations tested ranged from 1x10^-5M to […] with a final proportion of DMSO in the assay of 0.1 %. Control wells were treated with 0.1 % DMSO.
Sensitized LAD2 cells were centrifuged (300 g, 3 min, R.T.) and washed 2 times with release buffer. Cells were resuspended in release buffer and adjusted to a density of 0.2x10^6/ml. 45 µl of the adjusted cells were transfered to the assay plate (∼10,000cells/well) containg 5 µl of the final compound concentrations. LAD2 cells were incubated with the compound for 30 min (37 °C, 5% CO2 90% of humidity) and then activated with 125 ng/ml of streptavidin (Pierce 21125) for 30 min (37 °C, 5% CO2, 90% of humidity). After the activation, cells were centrifuged at 1200 g, 10 min, 12 °C and supernatats were removed and transfered to another well for determination of released β-hexosaminidase. Empty wells were filled with 50 µl of release buffer for determination of intracellular β-hexosaminidase. Cells were lysed with 2 cycles of freeze-thaw.
Cells were incubated for 90 minutes, 37 °C with 1 mM β-hexosaminidase substrate (p-nitrophenyl N-acetyl-D-glucosamide, in citric buffer, pH 4.5). Reaction was stopped with 0.4 M glycine solution (pH 10.0) and the plate is read immediately at 405 nm.

[1] = molecular target: T4, Recombinant human full-length Syk (Homo sapiens, UniProt P43405); assay: Syk enzyme assay - radioactive filtration kinase assay; type: biochemical
T4 construct: Recombinant human full-length Syk was supplied by Millipore; purchased Millipore
Experimental: Syk Enzyme assay- Radioactive filtration kinase assay
Recombinant human full-length Syk was supplied by Millipore. The activity of Syk kinase was assessed using a radioactive filtration kinase assay. […] The reaction was initiated by the addition of 14.5 µl of 0.36 µCi [γ-^33P] ATP (10 mCi/ml, PerkinElmer). This was prepared in a half-area NBS plate (Corning) and allowed to stand at room temperature for 40 min. 15 µl of reaction mixture was transferred to a filter plate (Millipore) previously pre-wetted with a solution of 75 mM phosphoric acid. The reaction was terminated with the addition of 200 µl phosphoric acid. The filter plate was washed three times under vacuum on a vacuum manifold (Millipore cat# MSVMHTS00) at 8" Hg vacuum level with 200 µl phosphoric acid per wash. 30 µl Optiphase™ Supermix (PerkinElmer) was added to each test well and allowed to incubate for at least 1 h before counting. Radioactivity counting was performed in a Wallac MicroBeta®, and the tyrosine phosphorylation activity by Syk was calculated.

[2] = Syk 1nM final, poly-GT 100 µg/ml, [γ-33P] ATP, 40 min at room temperature, read-out: Syk IC50

| SMILES | pIC50 (JAK3 (aa 795-1124)) | pIC50 (human JAK1 (aa 850-1154)) | pIC50 (JAK2 (aa 826-1132)) | pIC50 [1, 2] | pIC50 (LAD2 cells) | pIC50 [1] |
| --- | --- | --- | --- | --- | --- | --- |
| O=C(O)c1ccc(C(=O)Nc2cc(Nc3cnccn3)nc(-c3ccnc(N4CCNCC4)c3)c2)cc1 [Example 79, 4-({[2'-Piperazin-1-yl-6-(pyrazin-2-ylamino)-2,4'-bipyridin-4-yl]amino}carbonyl) benzoic acid] | 6.00 to 7.00 | – | > 7.00 | – | 6.85 | 8.10 |
| O=C(Nc1cc(Nc2cnccn2)nc(-c2ccnc(N3CCNCC3)c2)c1)c1cccnc1 [Example 85, N-[2'-Piperazin-1-yl-6-(pyrazin-2-ylamino)-2,4'-bipyridin-4-yl]nicotinamide] | 6.00 to 7.00 | < 6.00 | > 7.00 | – | 6.91 | 8.22 |
| O=C(O)C[C@H](Cc1ccccc1)C(=O)Nc1cc(Nc2cnccn2)nc(-c2ccnc(N3CCNCC3)c2)c1 [Example 100, (3S)-3-Benzyl-4-oxo-4-{[2'-piperazin-1-yl-6-(pyrazin-2-ylamino)-2,4'-bipyridin-4-yl]amino}butanoic acid] | 6.00 to 7.00 | < 6.00 | 6.00 to 7.00 | – | – | – |

Second part, led by results:

| pIC50 (JAK3 (aa 795-1124)) | pIC50 (human JAK1 (aa 850-1154)) | pIC50 (JAK2 (aa 826-1132)) | pIC50 [1, 2] | SMILES | pIC50 (LAD2 cells) | pIC50 [1] |
| --- | --- | --- | --- | --- | --- | --- |
| 6.00 to 7.00 | < 6.00 | > 7.00 | – | COc1cccc(CC(=O)Nc2cc(Nc3cnccn3)nc(-c3ccnc(N4CCNCC4)c3)c2)c1 [Example 78, 2-(3-Methoxyphenyl)-N-[2'-piperazin-1-yl-6-(pyrazin-2-ylamino)-2,4'-bipyridin-4-yl]acetamide] | – | – |
| 6.00 to 7.00 | < 6.00 | > 7.00 | 8.22 | O=C(Nc1cc(Nc2cnccn2)nc(-c2ccnc(N3CCNCC3)c2)c1)c1ccc(F)cc1 [Example 80, 4-Fluoro-N-[2'-piperazin-1-yl-6-(pyrazin-2-ylamino)-2,4'-bipyridin-4-yl]benzamide] | 6.54 | – |
| 6.00 to 7.00 | – | > 7.00 | 8.22 | O=C(O)c1cccc(C(=O)Nc2cc(Nc3cnccn3)nc(-c3ccnc(N4CCNCC4)c3)c2)c1 [Example 88, 3-({[2'-Piperazin-1-yl-6-(pyrazin-2-ylamino)-2,4'-bipyridin-4-yl]amino}carbonyl) benzoic acid] | 7.09 | – |
